Results reported in PubChem BioAssay AID330 (DTP/NCI, 2004).
Several values for one entry are separate records, joined by “and”; a condition that tells them apart may be missing. Identical values can stand only once. Toxic doses and inconclusive results are not listed. Rule for the calls: active = survival T/C of 150% or more; inactive = T/C below 125% in these data.

Tested on: P388 leukemia ip, CD2F1 mice, survival T/C
Assay: NCI In Vivo Anticancer Drug Screen. Data for tumor model P388 Leukemia (intraperitoneal) in CD2F1 (CDF1) mice
Settings: endpoint: median survival time, higher = longer survival
How it was run: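 Mice carrying the transplanted tumor received test compound or vehicle. Survival was recorded in each group, and the value is the treated-group measurement divided by that of the vehicle-treated control group.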

[1] = dose: 50.0 mg/kg/injection, schedule: Q01DX009 (ip), vehicle: saline
[2] = dose: 100.0 mg/kg/injection, schedule: Q01DX009 (ip), vehicle: saline
[3] = dose: 200.0 mg/kg/injection, schedule: Q01DX009 (ip), vehicle: saline
[4] = dose: 6.25 mg/kg/injection, schedule: Q01DX009 (ip), vehicle: saline with Tween-80
[5] = dose: 12.5 mg/kg/injection, schedule: Q01DX009 (ip), vehicle: saline with Tween-80
[6] = dose: 12.5 mg/kg/injection, schedule: Q01DX009 (ip), vehicle: Klucel (hydroxypropylcellulose) (HPC)
[7] = dose: 25.0 mg/kg/injection, schedule: Q01DX009 (ip), vehicle: Klucel (hydroxypropylcellulose) (HPC)
[8] = dose: 50.0 mg/kg/injection, schedule: Q01DX009 (ip), vehicle: Klucel (hydroxypropylcellulose) (HPC)
[9] = dose: 100.0 mg/kg/injection, schedule: Q01DX009 (ip), vehicle: Klucel (hydroxypropylcellulose) (HPC)
[10] = dose: 200.0 mg/kg/injection, schedule: Q01DX009 (ip), vehicle: Klucel (hydroxypropylcellulose) (HPC)
[11] = dose: 50.0 mg/kg/injection, schedule: Q01DX005 (ip), vehicle: Klucel (hydroxypropylcellulose) (HPC)
[12] = dose: 100.0 mg/kg/injection, schedule: Q01DX005 (ip), vehicle: Klucel (hydroxypropylcellulose) (HPC)
[13] = dose: 25.0 mg/kg/injection, schedule: Q01DX009 (ip), vehicle: saline with Tween-80
[14] = dose: 50.0 mg/kg/injection, schedule: Q01DX009 (ip), vehicle: saline with Tween-80
[15] = dose: 100.0 mg/kg/injection, schedule: Q01DX009 (ip), vehicle: saline with Tween-80
[16] = dose: 60.0 mg/kg/injection, schedule: Q01DX005 (ip), vehicle: saline
[17] = dose: 120.0 mg/kg/injection, schedule: Q01DX005 (ip), vehicle: saline
[18] = dose: 200.0 mg/kg/injection, schedule: Q01DX009 (ip), vehicle: saline with Tween-80

Measured: T/C

COc1cc(/C=C/C(=O)N2CCN(CC(=O)N3CCCC3)CC2)cc(OC)c1OC
inactive: [1] 100 % of control | [2] 94 % of control | [3] 95 % of control

COc1cccc2c1[n+]([O-])c1cccc(O)c1[n+]2[O-]
inactive: dose: 1.56 mg/kg/injection, schedule: Q01DX009 (ip), vehicle: saline with Tween-80 112 % of control | dose: 3.12 mg/kg/injection, schedule: Q01DX009 (ip), vehicle: saline with Tween-80 109 % of control | [4] 114 % of control | [5] 124 % of control

Cc1ccc2ncc(C)c(/C=C/c3ccc(N(C)C)cc3)c2c1
inactive: dose: 50.0 mg/kg/injection, schedule: Q01DX001 (ip), vehicle: saline with Tween-80 108 % of control | dose: 100.0 mg/kg/injection, schedule: Q01DX001 (ip), vehicle: saline with Tween-80 112 % of control | dose: 200.0 mg/kg/injection, schedule: Q01DX001 (ip), vehicle: saline with Tween-80 122 % of control

O=C1CC2(CCCCC2)CC(=O)N1c1ccc(O)c(CN(Cc2ccccc2)Cc2ccccc2)c1
inactive: dose: 100.0 mg/kg/injection, schedule: Q04DX003 (ip), vehicle: Klucel (hydroxypropylcellulose) (HPC) 90 % of control | dose: 200.0 mg/kg/injection, schedule: Q04DX003 (ip), vehicle: Klucel (hydroxypropylcellulose) (HPC) 92 % of control | dose: 400.0 mg/kg/injection, schedule: Q04DX003 (ip), vehicle: Klucel (hydroxypropylcellulose) (HPC) 93 % of control

Cc1ccc(S(=O)(=O)NN=C(c2ccccc2)c2ccccc2)cc1
inactive: [6] 98 % of control | [7] 93 % of control | [8] 87 % of control | [9] 88 % of control | [10] 86 % of control

CC12c3ccccc3C(C)(c3ccccc31)C(C(=O)O)C2Br (stereo not drawn)
inactive: [11] 100 % of control | [12] 103 % of control | dose: 200.0 mg/kg/injection, schedule: Q01DX005 (ip), vehicle: Klucel (hydroxypropylcellulose) (HPC) 95 % of control

C/C(=N/N(C)C)c1ccncc1
inactive: [8] 104 % of control | [9] 107 % of control | [10] 113 % of control

Nc1ccc(-c2cc(O)ccc2N)cc1
inactive: [13] 100 % of control | [14] 117 % of control | [15] 110 % of control

COC(=O)C(C)CSc1ccccc1 (stereo not drawn)
inactive: [16] 99 % of control | [17] 107 % of control

O=C1CCCN1
inactive: dose: 100.0 mg/kg/injection, schedule: Q04DX003 (ip), vehicle: saline 100 % of control | dose: 200.0 mg/kg/injection, schedule: Q04DX003 (ip), vehicle: saline 100 % of control | dose: 400.0 mg/kg/injection, schedule: Q04DX003 (ip), vehicle: saline 109 % of control

CC12CCCN(CCCl)C1CCC1C2CCC2(C)C1CCCN2CCCl (stereo not drawn)
inactive: dose: 0.78 mg/kg/injection, schedule: Q01DX001 (ip), vehicle: saline with Tween-80 108 % of control | dose: 1.56 mg/kg/injection, schedule: Q01DX001 (ip), vehicle: saline with Tween-80 112 % of control and 118 % of control | dose: 1.56 mg/kg/injection, schedule: Q01DX001 (ip), vehicle: saline 102 % of control | dose: 3.13 mg/kg/injection, schedule: Q01DX001 (ip), vehicle: saline with Tween-80 117 % of control

Cc1ccc(C[n+]2ccc3c([N+](=O)[O-])cccc3c2)cc1
inactive: [4] 112 % of control | [5] 113 % of control | [13] 114 % of control

C1CCCc2c(-c3noc4c3CCCCCC4)noc2CC1
inactive: [16] 98 % of control | [17] 99 % of control | dose: 240.0 mg/kg/injection, schedule: Q01DX005 (ip), vehicle: saline 108 % of control

CC(NCCNC(C)C(=O)O)C(=O)O (stereo not drawn)
inactive: dose: 50.0 mg/kg/injection, schedule: Q01DX005 (ip), vehicle: saline 101 % of control | dose: 100.0 mg/kg/injection, schedule: Q01DX005 (ip), vehicle: saline 103 % of control | dose: 200.0 mg/kg/injection, schedule: Q01DX005 (ip), vehicle: saline 100 % of control

c1cnn([B-]2(n3cccn3)n3ccc[n+]3[B-](n3cccn3)(n3cccn3)n3ccc[n+]32)c1
inactive: dose: 60.0 mg/kg/injection, schedule: Q01DX005 (ip), vehicle: saline with Tween-80 102 % of control | dose: 120.0 mg/kg/injection, schedule: Q01DX005 (ip), vehicle: saline with Tween-80 102 % of control | dose: 240.0 mg/kg/injection, schedule: Q01DX005 (ip), vehicle: saline with Tween-80 100 % of control

CC(C)=NO
inactive: [1] 117 % of control | [2] 100 % of control | [3] 101 % of control

CN(C)C1CCc2ccc3ccccc3c2C1=O (stereo not drawn)
inactive: [11] 98 % of control | [12] 103 % of control

Cc1ccc(C(O)(c2nc3ccccc3s2)c2nc3ccccc3s2)cc1
inactive: [14] 101 % of control | [15] 112 % of control | [18] 113 % of control

CC(=O)OCC12C(=O)CC(C)C3(CC(c4ccoc4)OC3=O)C1(C)CCCC21CO1 (stereo not drawn)
inactive: dose: 3.12 mg/kg/injection, schedule: Q01DX005 (ip), vehicle: Klucel (hydroxypropylcellulose) (HPC) 97 % of control | dose: 6.25 mg/kg/injection, schedule: Q01DX005 (ip), vehicle: Klucel (hydroxypropylcellulose) (HPC) 97 % of control | dose: 12.5 mg/kg/injection, schedule: Q01DX005 (ip), vehicle: Klucel (hydroxypropylcellulose) (HPC) 99 % of control | dose: 25.0 mg/kg/injection, schedule: Q01DX005 (ip), vehicle: Klucel (hydroxypropylcellulose) (HPC) 92 % of control | [11] 94 % of control

CCOc1cc2c(cc1C(C)c1ccc(OC)cc1)OCO2 (stereo not drawn)
inactive: dose: 25.0 mg/kg/injection, schedule: Q01DX005 (ip), vehicle: distilled water + alcohol 96 % of control | dose: 50.0 mg/kg/injection, schedule: Q01DX005 (ip), vehicle: distilled water + alcohol 100 % of control and 119 % of control | dose: 100.0 mg/kg/injection, schedule: Q01DX005 (ip), vehicle: distilled water + alcohol 123 % of control | dose: 200.0 mg/kg/injection, schedule: Q01DX005 (ip), vehicle: distilled water + alcohol 92 % of control

COC1C2CC3C4(CCC5C6(C)CCCC53C(C14)N(C)C6)CC21CCC23C4C=C5C6=C(CCC5(CC42)C3O1)C1(C)CC(C6)CN(C)C1 (stereo not drawn)
inactive: [6] 91 % of control | [7] 94 % of control | [8] 98 % of control

N#CN=[N+]([O-])c1ccc([N+](=O)[O-])cc1
inactive: dose: 1.56 mg/kg/injection, schedule: Q01DX001 (ip), vehicle: Klucel (hydroxypropylcellulose) (HPC) 101 % of control | dose: 3.12 mg/kg/injection, schedule: Q01DX001 (ip), vehicle: Klucel (hydroxypropylcellulose) (HPC) 99 % of control | dose: 6.25 mg/kg/injection, schedule: Q01DX001 (ip), vehicle: Klucel (hydroxypropylcellulose) (HPC) 110 % of control | dose: 6.25 mg/kg/injection, schedule: Q04DX003 (ip), vehicle: Klucel (hydroxypropylcellulose) (HPC) 101 % of control

Clc1ncnc2n[nH]c(Br)c12
inactive: dose: 100.0 mg/kg/injection, schedule: Q04DX002 (ip), vehicle: water 108 % of control | dose: 200.0 mg/kg/injection, schedule: Q04DX002 (ip), vehicle: water 116 % of control | dose: 400.0 mg/kg/injection, schedule: Q04DX002 (ip), vehicle: water 107 % of control

COc1cc(OC)c(/C=C\c2nccc3ccccc23)c(OC)c1
inactive: [14] 95 % of control | [15] 96 % of control | [18] 96 % of control
